Experimental findings from BindingDB's records for doi:10.1097/00001756-199710200-00002 (Cnrs Upr 9023, 1997) are described below.

Where “and” joins values, the source holds several entries; their conditions need not be identical. Equal entries are not always repeated.

By Ki is commonly meant the dissociation constant of the complex between target and ligand, obtained from inhibition or displacement. A low value points to a stronger hold on the target.

The target of assay [1] is 5-hydroxytryptamine receptor 4 (Homo sapiens, UniProt Q13639).
For assay [2], the target named is 5-hydroxytryptamine receptor 4 (Rattus norvegicus, UniProt Q62758).
Sequence of 5-hydroxytryptamine receptor 4 (Rattus norvegicus, UniProt Q62758) (Q62758 whole entry): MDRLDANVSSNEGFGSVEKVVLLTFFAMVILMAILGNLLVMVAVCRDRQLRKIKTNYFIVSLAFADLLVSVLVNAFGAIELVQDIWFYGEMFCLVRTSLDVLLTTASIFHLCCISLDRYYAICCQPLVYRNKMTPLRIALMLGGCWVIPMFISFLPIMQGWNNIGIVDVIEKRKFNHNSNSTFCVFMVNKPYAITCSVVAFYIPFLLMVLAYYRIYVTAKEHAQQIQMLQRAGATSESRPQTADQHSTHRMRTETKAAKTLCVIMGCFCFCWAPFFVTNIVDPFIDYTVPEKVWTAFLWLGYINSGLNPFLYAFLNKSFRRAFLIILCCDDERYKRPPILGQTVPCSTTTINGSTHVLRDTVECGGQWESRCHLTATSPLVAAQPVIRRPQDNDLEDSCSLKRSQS

Sequence of 5-hydroxytryptamine receptor 4 (Homo sapiens, UniProt Q13639) (Q13639 whole entry): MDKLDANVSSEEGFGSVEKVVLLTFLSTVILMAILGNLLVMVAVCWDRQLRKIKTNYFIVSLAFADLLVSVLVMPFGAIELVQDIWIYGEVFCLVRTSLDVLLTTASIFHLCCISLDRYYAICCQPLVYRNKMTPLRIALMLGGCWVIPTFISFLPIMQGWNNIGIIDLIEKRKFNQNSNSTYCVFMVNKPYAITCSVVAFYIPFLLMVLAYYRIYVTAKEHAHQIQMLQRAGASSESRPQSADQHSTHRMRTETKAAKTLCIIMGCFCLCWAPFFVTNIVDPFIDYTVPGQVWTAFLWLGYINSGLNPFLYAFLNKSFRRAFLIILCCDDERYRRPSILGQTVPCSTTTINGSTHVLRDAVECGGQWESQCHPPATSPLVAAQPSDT

On to `COc1ccc2[nH]c(=O)n(C(=O)OC3CC4CCC(C3)N4C)c2c1` (centres undefined) [DAU 6285], for which the Ki in assay [1] is 18.6 nM and 10.5 nM; in assay [2], 22.4 nM and 5.37 nM. In assay [2], `COc1cc(N)c(Cl)cc1C(=O)NC1CCN2CCCC1C2` (centres undefined) [NSC_3035240] came in with an inhibitory constant (Ki) of 112 nM. This lies in the sub-micromolar range. Turning to `COc1ccc2[nH]cc(CCN)c2c1` [tryptamine, 5-Methoxy], the inhibition constant (Ki) in assay [1] was 155 nM; in assay [2], 123 nM. Take `NCCc1c[nH]c2ccc(C(N)=O)cc12` [[3H]-5-carboxamidotryptamine]: the Ki in assay [2] stood at 9120 nM. For the compound `CC(C)n1c(=O)n(C(=O)NC2CC3CCC(C2)N3C)c2ccccc21` (centres undefined) [BIMU 8], the inhibition constant (Ki) in assay [1] amounted to 45.7 nM; in assay [2], 19.1 nM.

On to `COc1[nH]c2ccc(F)cc2c1C(=O)OCC1CCN(CCNS(C)(=O)=O)CC1` [GR-125487], for which the figures for the Ki in assay [1] and in assay [2] were 0.02 nM and 0.0089 nM, respectively. With `COc1cc(N)c(Cl)cc1C(=O)NC1CN2CCC1CC2` (centres undefined) [ZACOPRIDE,R], the values for the Ki in assay [1] and in assay [2] were 282 nM and 186 nM, respectively. As to `Cn1cc(C(=O)OCC2CCN(CCNS(C)(=O)=O)CC2)c2ccccc21` [GR 113808], the inhibitory constant (Ki) in assay [1] is 0.02 nM and 0.09 nM; in assay [2], 0.02 nM and 0.03 nM.
